Measured values as given in patent publication US20240123079A1 (Seagen Inc., priority 2021, published 2024).
pEC50: −log10 of the molar value.

The molecules below were run on THP1-Dual™ reporter cells (assay: THP1-Dual cell reporter assay (IRF-Lucia luciferase reporter)). Conditions: ADCs: drug linker conjugated to a targeted mAb, 48 h.
Type: cell-based, human
Procedure, shortened: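 THP1-Dual monocytic cells (~100,000/well) were exposed to compound for 24 h (ADCs 48 h). Secreted IRF-driven Lucia luciferase in the supernatant was quantified by QUANTI-Luc luminescence.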
With `CCn1nc(C)cc1C(=O)Nc1nc2cc(C(N)=O)cc(OC)c2n1C/C=C/Cn1c(NC(=O)c2cc(C)nn2CC)nc2cc(C(N)=O)cc(OCCCN(C)C(=O)[C@H](Cc3ccc(OC)cc3)NC(=O)CCN3C(=O)C=CC3=O)c21` [Compound 124] the “EC50” value was 9.1 ng/mL. For `CCn1nc(C)cc1C(=O)Nc1nc2cc(C(N)=O)cc(OC)c2n1C/C=C/Cn1c(NC(=O)c2cc(C)nn2CC)nc2cc(C(N)=O)cc(OCCCN(C)C(=O)[C@@H](NC(=O)CCN3C(=O)C=CC3=O)[C@@H](C)OC)c21` [Compound 125], the “EC50” value was 1.4 ng/mL. `CCn1nc(C)cc1C(=O)Nc1nc2cc(C(=O)O)cc(OC)c2n1C/C=C/Cn1c(NC(=O)c2cc(C)nn2CC)nc2cc(C(N)=O)cc(OCCCN(C)C(=O)CCN3C(=O)C=CC3=O)c21` [Compound 126, (E)-1-(4-(5-carbamoyl-7-(3-(3-(2,5-dioxo-2,5-dihydro-1H-pyrrol-1-yl)-N-methylpropanamido)propoxy)-2-(1-ethyl-3-methyl-1H-pyrazole-5-carboxamido)-1H-benzo[d]imidazol-1-yl)but-2-en-1-yl)-2-(1-ethyl-3-methyl-1H-pyrazole-5-carboxamido)-7-methoxy-1H-benzo[d]imidazole-5-carboxylic acid] was tested, and the “EC50 (ng/mL)” value was >10,000 ng/mL. With `CCn1nc(C)cc1C(=O)Nc1nc2cc(S(=O)(=O)NC)ccc2n1C/C=C/Cn1c(NC(=O)c2cc(C)nn2CC)nc2cc(C(N)=O)cc(OCCCN(C)C(=O)CCN3C(=O)C=CC3=O)c21` [Compound 128, (E)-7-(3-(3-(2,5-dioxo-2,5-dihydro-1H-pyrrol-1-yl)-N-methylpropanamido)propoxy)-2-(1-ethyl-3-methyl-1H-pyrazole-5-carboxamido)-1-(4-(2-(1-ethyl-3-methyl-1H-pyrazole-5-carboxamido)-5-(N-methylsulfamoyl)-1H-benzo[d]imidazol-1-yl)but-2-en-1-yl)-1H-benzo[d]imidazole-5-carboxamide] the “EC50 (ng/mL)” value was >10,000 ng/mL. For `CCn1nc(C)cc1C(=O)Nc1nc2cc(C(N)=O)cc(OC)c2n1C/C=C/Cn1c(NC(=O)c2cc(C)nn2CC)nc2cc(C(N)=O)cc(OCCCN(C(=O)CCN3C(=O)C=CC3=O)C3CC3)c21` [Compound 133, (E)-1-(4-(5-carbamoyl-2-(1-ethyl-3-methyl-1H-pyrazole-5-carboxamido)-7-methoxy-1H-benzo[d]imidazol-1-yl)but-2-en-1-yl)-7-(3-(N-cyclopropyl-3-(2,5-dioxo-2,5-dihydro-1H-pyrrol-1-yl)propanamido)propoxy)-2-(1-ethyl-3-methyl-1H-pyrazole-5-carboxamido)-1H-benzo[d]imidazole-5-carboxamide], the “EC50” value was 12.2 ng/mL. `CCn1nc(C)cc1C(=O)Nc1nc2cc(C(N)=O)cc(OC)c2n1C/C=C/Cn1c(NC(=O)c2cc(C)nn2CC)nc2cc(C(N)=O)cc(OCCC[N+](C)(C)Cc3ccc(O[C@@H]4O[C@H](C(=O)O)[C@@H](O)[C@H](O)[C@H]4O)cc3NC(=O)CCNC(=O)CCN3C(=O)C=CC3=O)c21.O=C([O-])C(F)(F)F` [Compound 134] was tested, and the “EC50” value was 10.3 ng/mL.

Same assay, conditions: Homo sapiens, THP1-Dual; free compounds, 24 h, Lucia reporter signal; read-out: EC50
`CCn1nc(C)cc1C(=O)Nc1nc2cc(S(=O)(=O)NC)ccc2n1C/C=C/Cn1c(NC(=O)c2cc(C)nn2CC)nc2cc(C(N)=O)cc(OCCCN(C)C(=O)OC(C)(C)C)c21` [Compound 127, tert-butyl (E)-(3-((5-carbamoyl-2-(1-ethyl-3-methyl-1H-pyrazole-5-carboxamido)-1-(4-(2-(1-ethyl-3-methyl-1H-pyrazole-5-carboxamido)-5-(N-methylsulfamoyl)-1H-benzo[d]imidazol-1-yl)but-2-en-1-yl)-1H-benzo[d]imidazol-7-yl)oxy)propyl)(methyl)carbamate] was tested, and the pEC50 was 6.52. `CCn1nc(C)cc1C(=O)Nc1nc2cc(S(=O)(=O)NC)ccc2n1C/C=C/Cn1c(NC(=O)c2cc(C)nn2CC)nc2cc(C(N)=O)cc(OCCCNC)c21` [Compound 128a] was tested, and the pEC50 was under 5.00. In the case of `CCn1nc(C)cc1C(=O)Nc1nc2cc(C(=O)OC)cc(OC)c2n1C/C=C/Cn1c(NC(=O)c2cc(C)nn2CC)nc2cc(C(N)=O)cc(OCCCN(C)C(=O)CCN3C(=O)CC(SC[C@H](N)C(=O)O)C3=O)c21` (stereo partly drawn) [Compound 129, S-(1-(3-((3-((5-carbamoyl-2-(1-ethyl-3-methyl-1H-pyrazole-5-carboxamido)-1-((E)-4-(2-(1-ethyl-3-methyl-1H-pyrazole-5-carboxamido)-7-methoxy-5-(methoxycarbonyl)-1H-benzo[d]imidazol-1-yl)but-2-en-1-yl)-1H-benzo[d]imidazol-7-yl)oxy)propyl)(methyl)amino)-3-oxopropyl)-2,5-dioxopyrrolidin-3-yl)-L-cysteine], the pEC50 was 6.08. `CCn1nc(C)cc1C(=O)Nc1nc2cc(C(=O)O)cc(OC)c2n1C/C=C/Cn1c(NC(=O)c2cc(C)nn2CC)nc2cc(C(N)=O)cc(OCCCN(C)C(=O)CCN3C(=O)CC(SC[C@H](N)C(=O)O)C3=O)c21` (stereo partly drawn) [Compound 130, 1-((E)-4-(7-(3-(3-(3-(((R)-2-amino-2-carboxyethyl)thio)-2,5-dioxopyrrolidin-1-yl)-N-methylpropanamido)propoxy)-5-carbamoyl-2-(1-ethyl-3-methyl-1H-pyrazole-5-carboxamido)-1H-benzo[d]imidazol-1-yl)but-2-en-1-yl)-2-(1-ethyl-3-methyl-1H-pyrazole-5-carboxamido)-7-methoxy-1H-benzo[d]imidazole-5-carboxylicacid] was tested, and the pEC50 was 5.65. In the case of `CCn1nc(C)cc1C(=O)Nc1nc2cc(C(N)=O)ccc2n1C/C=C/Cn1c(NC(=O)c2cc(C)nn2CC)nc2cc(C(N)=O)cc(OCCCN(C)C(=O)CCCCCN3C(=O)CC(SC[C@H](N)C(=O)O)C3=O)c21` (stereo partly drawn) [Compound 132, S-(1-(6-((3-((5-carbamoyl-1-((E)-4-(5-carbamoyl-2-(1-ethyl-3-methyl-1H-pyrazole-5-carboxamido)-1H-benzo[d]imidazol-1-yl)but-2-en-1-yl)-2-(1-ethyl-3-methyl-1H-pyrazole-5-carboxamido)-1H-benzo[d]imidazol-7-yl)oxy)propyl)(methyl)amino)-6-oxohexyl)-2,5-dioxopyrrolidin-3-yl)-L-cysteine], the pEC50 was 7.43. Molecule `CCn1nc(C)cc1C(=O)Nc1nc2cc(S(N)(=O)=O)ccc2n1C/C=C/Cn1c(NC(=O)c2cc(C)nn2CC)nc2cc(C(N)=O)cc(OCCC3CNC3)c21` [Compound 135, (E)-7-(2-(azetidin-3-yl)ethoxy)-2-(1-ethyl-3-methyl-1H-pyrazole-5-carboxamido)-1-(4-(2-(1-ethyl-3-methyl-1H-pyrazole-5-carboxamido)-5-sulfamoyl-1H-benzo[d]imidazol-1-yl)but-2-en-1-yl)-1H-benzo[d]imidazole-5-carboxamide] has a pEC50 of 5.70. Work on `CCn1nc(C)cc1C(=O)Nc1nc2cc(S(N)(=O)=O)ccc2n1C/C=C/Cn1c(NC(=O)c2cc(C)nn2C)nc2cc(C(N)=O)cc(OCCC3CNC3)c21` [Compound 136, (E)-7-(2-(azetidin-3-yl)ethoxy)-2-(1,3-dimethyl-1H-pyrazole-5-carboxamido)-1-(4-(2-(1-ethyl-3-methyl-1H-pyrazole-5-carboxamido)-5-sulfamoyl-1H-benzo[d]imidazol-1-yl)but-2-en-1-yl)-1H-benzo[d]imidazole-5-carboxamide] yielded a pEC50 of under 5.30. With `CCn1nc(C)cc1C(=O)Nc1nc2cc(S(N)(=O)=O)ccc2n1C/C=C/Cn1c(NC(=O)c2cc(C)nn2CC)nc2cc(C(N)=O)cc(OCCCOC3CNC3)c21` [Compound 137, (E)-7-(3-(azetidin-3-yloxy)propoxy)-2-(1-ethyl-3-methyl-1H-pyrazole-5-carboxamido)-1-(4-(2-(1-ethyl-3-methyl-1H-pyrazole-5-carboxamido)-5-sulfamoyl-1H-benzo[d]imidazol-1-yl)but-2-en-1-yl)-1H-benzo[d]imidazole-5-carboxamide] the pEC50 was 5.77. Molecule `CCn1nc(C)cc1C(=O)Nc1nc2cc(S(N)(=O)=O)ccc2n1C/C=C/Cn1c(NC(=O)c2cc(C)nn2C)nc2cc(C(N)=O)cc(OCCCOC3CNC3)c21` [Compound 138] has a pEC50 of under 5.30. Work on `CCn1nc(C)cc1C(=O)Nc1nc2cc(S(N)(=O)=O)ccc2n1C/C=C/Cn1c(NC(=O)c2cc(C)nn2C)nc2cc(C(N)=O)cc(OCCCNC)c21` [Compound 139] yielded a pEC50 of under 5.40. Work on `CCn1nc(C)cc1C(=O)Nc1nc2cc(C(N)=O)cc(OC)c2n1C/C=C/Cn1c(NC(=O)c2cc(C)nn2C)nc2cc(C(N)=O)cc(OCCC3CNC3)c21` [Compound 140, (E)-7-(2-(azetidin-3-yl)ethoxy)-1-(4-(5-carbamoyl-2-(1-ethyl-3-methyl-1H-pyrazole-5-carboxamido)-7-methoxy-1H-benzo[d]imidazol-1-yl)but-2-en-1-yl)-2-(1,3-dimethyl-1H-pyrazole-5-carboxamido)-1H-benzo[d]imidazole-5-carboxamide] yielded a pEC50 of 5.75. Molecule `CCc1nc(C)oc1C(=O)Nc1nc2cc(C(N)=O)cc(OCCC3CNC3)c2n1C/C=C/Cn1c(NC(=O)c2cc(C)nn2CC)nc2cc(C(N)=O)cc(OC)c21` [Compound 141, (E)-N-(7-(2-(azetidin-3-yl)ethoxy)-5-carbamoyl-1-(4-(5-carbamoyl-2-(1-ethyl-3-methyl-1H-pyrazole-5-carboxamido)-7-methoxy-1H-benzo[d]imidazol-1-yl)but-2-en-1-yl)-1H-benzo[d]imidazol-2-yl)-4-ethyl-2-methyloxazole-5-carboxamide] has a pEC50 of 6.80. `CCn1nc(C)cc1C(=O)Nc1nc2cc(C(N)=O)cc(OC)c2n1C/C=C/Cn1c(NC(=O)c2cc(C)nn2C)nc2cc(C(N)=O)cc(OCCCOC3CNC3)c21` [Compound 142, (E)-7-(3-(azetidin-3-yloxy)propoxy)-1-(4-(5-carbamoyl-2-(1-ethyl-3-methyl-1H-pyrazole-5-carboxamido)-7-methoxy-1H-benzo[d]imidazol-1-yl)but-2-en-1-yl)-2-(1,3-dimethyl-1H-pyrazole-5-carboxamido)-1H-benzo[d]imidazole-5-carboxamide] showed a pEC50 of 5.95. Work on `CCc1nc(C)oc1C(=O)Nc1nc2cc(C(N)=O)cc(OCCCOC3CNC3)c2n1C/C=C/Cn1c(NC(=O)c2cc(C)nn2CC)nc2cc(C(N)=O)cc(OC)c21` [Compound 143, (E)-N-(7-(3-(azetidin-3-yloxy)propoxy)-5-carbamoyl-1-(4-(5-carbamoyl-2-(1-ethyl-3-methyl-1H-pyrazole-5-carboxamido)-7-methoxy-1H-benzo[d]imidazol-1-yl)but-2-en-1-yl)-1H-benzo[d]imidazol-2-yl)-4-ethyl-2-methyloxazole-5-carboxamide] yielded a pEC50 of 6.81.
